Consider 11 compounds from ChEMBL document CHEMBL1201862, “PubChem BioAssay data set” (2004).

Test in all cases: growth of human tumour cells (NCI), 48 h
Experiment [1] deals with COLO 205.
The subject of experiment [2] is SR.
Experiment [3] has as its system UACC-62.
In experiment [4] the test system is NCI-H522.
Experiment [5] concerns SF-295.
Experiment [6] deals with OVCAR-5.
Experiment [7] concerns DMS-114.
The subject of experiment [8] is NCI-H226.
In experiment [9] the test system is CAKI-1.
Experiment [10] has as its system HCT-15.
The subject of experiment [11] is UACC-257.
The subject of experiment [12] is HT-29.
Experiment [13] deals with HOP-92.
Experiment [14] relates to TK-10.
Experiment [15] relates to HL-60.
The test system of experiment [16] is MOLT-4.
For experiment [17], the system named is RXF 393.
In experiment [18] the test system is LOX IMVI.
In experiment [19] the test system is EKVX.

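Where inhibition never reached the appropriate level, the endpoint shown equals the highest concentration tested. Otherwise, values were interpolated linearly from a five-concentration, 48-hour dose response in 96-well plates. The concentration for 50% growth inhibition is given as GI50.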 Active and inactive are the calls of the source. Cut-off read from the data, not from the text of the source: active = GI50 up to about 1.1 µM and inactive = higher.

`COc1ccc(CCc2ccccc2CC(=O)O)cc1`: the GI50 in [1], in experiment [2], in [3], in [4], in [5] and in [6] was > 100 µM (inactive) each time. Further, the GI50 in experiment [7] was > 100 µM (inactive); in [8], > 100 µM (inactive); in experiment [9], > 100 µM (inactive); in experiment [10], more than 100 µM; in experiment [11], > 100 µM (inactive); in experiment [12], > 100 µM (inactive). Besides, the GI50 in experiment [13], in experiment [14], in [15], in [16], in experiment [17] and in [18] was > 100 µM (inactive) in each case. For the same compound, the GI50 in experiment [19] is > 100 µM (inactive).
Consider `CC(=O)CC(=O)NC=O`, for which the GI50 in [1], in experiment [2], in experiment [3], in experiment [4], in [5] and in experiment [6] was > 100 µM (inactive) throughout. In addition, the GI50 is > 100 µM (inactive) in [7]; > 100 µM (inactive) in experiment [8]; > 100 µM (inactive) in experiment [9]; more than 100 µM in experiment [10]; > 100 µM (inactive) in [11]; > 100 µM (inactive) in experiment [12]. Further, the GI50 in experiment [13], in experiment [14], in experiment [15], in experiment [16], in [17] and in experiment [19] was > 100 µM (inactive) in each case.
For `O=C(Cc1ccccc1)NS(=O)(=O)c1ccccc1`, the GI50 in experiment [1], in experiment [2], in [3], in experiment [4], in experiment [5] and in experiment [6] was > 100 µM (inactive) throughout. The GI50 in [7], in experiment [8], in [9], in experiment [11], in experiment [12] and in experiment [13] was > 100 µM (inactive) throughout. In addition, the GI50 in experiment [14], in experiment [15], in [16], in experiment [17], in experiment [18] and in [19] was > 100 µM (inactive) throughout.
Consider `CC[C@@H]1OC2(C)CC(S(=O)(=O)c3ccccc3)CC1O2` (stereo partly specified), for which the GI50 in experiment [1], in [2], in [3], in experiment [4], in [5] and in experiment [6] was > 100 µM (inactive) throughout. Also, the GI50 in experiment [7] was > 100 µM (inactive); in experiment [8], > 100 µM (inactive); in experiment [9] it was < 0.01 µM (active); in experiment [10] it was more than 100 µM; in experiment [11], > 100 µM (inactive); in experiment [12], > 100 µM (inactive). In addition, the GI50 in [13], in experiment [15], in experiment [16], in experiment [17] and in experiment [19] was > 100 µM (inactive) each time.
Consider `CC(=O)C1CC2(c3ccccc3)C(=O)c3ccccc3N2O1` (stereo unspecified), for which the GI50 in experiment [1], in experiment [2], in experiment [3], in experiment [4], in experiment [5] and in experiment [7] was > 100 µM (inactive) throughout. Also, the GI50 in experiment [8] was > 100 µM (inactive); in [10], more than 100 µM; in experiment [11] it was > 100 µM (inactive); in [12], > 100 µM (inactive); in [13], > 100 µM (inactive); in [15], > 100 µM (inactive). For the same compound, the GI50 in [16], in [17] and in experiment [19] was > 100 µM (inactive) throughout.
Take `COCC(C)(C)/N=C/N1Cc2cc3ccccc3nc2C1`: the GI50 in [1], in experiment [2], in experiment [3], in experiment [4], in experiment [5] and in experiment [7] was > 100 µM (inactive) each time. Also, the GI50 in [8] is > 100 µM (inactive); in [9], > 100 µM (inactive); in experiment [10], more than 100 µM; in [11], > 100 µM (inactive); in experiment [12], > 100 µM (inactive); in experiment [13] it was > 100 µM (inactive). For the same compound, the GI50 in experiment [14], in [15], in experiment [16], in experiment [17] and in [19] was > 100 µM (inactive) in each case.
For the compound `COC1=C(C(=O)OC(C)(C)C)[C@]2(C)C(C(=O)OC(C)(C)C)C(OC)=C(C(=O)OC(C)(C)C)[C@]2(C)C1C(=O)OC(C)(C)C` (stereo partly specified), the GI50 was 60.4 µM (inactive) in experiment [1]; 33.6 µM (inactive) in experiment [2]; > 100 µM (inactive) in experiment [3]; 43.8 µM (inactive) in experiment [4]; 83.4 µM (inactive) in [5]; > 100 µM (inactive) in [6]. The GI50 in [7] was 53.1 µM (inactive); in experiment [8] it was > 100 µM (inactive); in experiment [9] it was 71.3 µM (inactive); in [10] it was 53 µM; in experiment [11], 28.2 µM (inactive); in [12], 63.2 µM (inactive). The GI50 in [13] was 32.9 µM (inactive); in experiment [14], > 100 µM (inactive); in [15] it was 24.9 µM (inactive); in [16], 33.9 µM (inactive); in [17], > 100 µM (inactive); in [18], > 100 µM (inactive). For the same compound, the GI50 in experiment [19] is > 100 µM (inactive).
Take `Cn1c(=O)c2c(nc(C[N+]3([O-])CCOCC3)n2C)n(C)c1=O`: the GI50 in experiment [1] was > 100 µM (inactive); in [2], > 100 µM (inactive); in experiment [3] it was > 100 µM (inactive); in experiment [4], > 100 µM (inactive); in experiment [6] it was > 100 µM (inactive); in experiment [7], 0.45 µM (active). Further, the GI50 in experiment [8] is > 100 µM (inactive); in experiment [9], 36.9 µM (inactive); in [10] it was more than 100 µM; in experiment [11], > 100 µM (inactive); in experiment [12] it was > 100 µM (inactive); in experiment [13] it was > 100 µM (inactive). Besides, the GI50 in [14], in experiment [15], in [16], in experiment [17], in experiment [18] and in [19] was > 100 µM (inactive) in each case.
For the compound `COC(=O)[C@@]12OC[C@]34C([C@@H](O)C1O)[C@@]1(C)CC(=O)C(O)=C(C)C1C[C@H]3OC(=O)[C@H](OC(=O)/C=C(/c1ccccc1)C(F)(F)F)[C@H]42` (stereo partly specified), the GI50 in experiment [1] is 6.67 µM (inactive); in experiment [2] it was 0.655 µM (active); in experiment [3], 2.05 µM (inactive); in experiment [4], 2.42 µM (inactive); in experiment [5] it was 4.18 µM (inactive); in [6], 8.75 µM (inactive). In addition, the GI50 was 4.19 µM (inactive) in experiment [7]; 2.02 µM (inactive) in experiment [8]; 7.59 µM (inactive) in experiment [9]; 7.93 µM in experiment [10]; 7.03 µM (inactive) in experiment [11]; 2.18 µM (inactive) in [12]. Besides, the GI50 was 2.15 µM (inactive) in experiment [13]; 7.74 µM (inactive) in [14]; 0.363 µM (active) in experiment [15]; 0.998 µM (active) in experiment [16]; 6.05 µM (inactive) in experiment [17]; 12 µM (inactive) in experiment [19].
`Cc1c(C(=O)/C=C/c2ccc3c(c2)OCO3)[n+]([O-])c2ccccc2[n+]1[O-]`: the GI50 was 27.7 µM (inactive) in [1]; 30.3 µM (inactive) in experiment [2]; 27.2 µM (inactive) in experiment [3]; 15.3 µM (inactive) in [4]; 28.7 µM (inactive) in [5]; 27.8 µM (inactive) in experiment [6]. Also, the GI50 is 21.4 µM (inactive) in experiment [7]; 16 µM (inactive) in experiment [8]; 25.9 µM (inactive) in experiment [9]; 31 µM (inactive) in [11]; 26.4 µM (inactive) in experiment [12]; 21.1 µM (inactive) in experiment [13]. Moreover, the GI50 is 36.1 µM (inactive) in experiment [14]; 30.8 µM (inactive) in [15]; 22.9 µM (inactive) in experiment [16]; 23 µM (inactive) in experiment [17]; 26.1 µM (inactive) in [18]; 24.7 µM (inactive) in [19].
`CCC1(O)C(=O)OCc2c1cc1n(c2=O)Cc2cc3ccc(CO)cc3nc2-1` (stereo unspecified): the GI50 is 14.2 µM (inactive) in [1]; 0.0646 µM (active) in experiment [2]; 0.757 µM (active) in experiment [3]; 1.64 µM (inactive) in [4]; 3.18 µM (inactive) in experiment [5]; 8.97 µM (inactive) in experiment [6]. Besides, the GI50 in experiment [7] was 1.82 µM (inactive); in [8], 1.59 µM (inactive); in experiment [9], 2.97 µM (inactive); in experiment [10] it was 15.6 µM; in experiment [11], 12.2 µM (inactive); in experiment [12], 9.35 µM (inactive). The GI50 in experiment [13] is 16.3 µM (inactive); in [14], > 95.3 µM (inactive); in experiment [15], 2.57 µM (inactive); in [16] it was 0.322 µM (active); in experiment [17], 7.26 µM (inactive); in experiment [18], 1.83 µM (inactive). Also, the GI50 in experiment [19] is 16.8 µM (inactive).
